In patent publication US20250257075A1, “MACROCYCLIC INHIBITORS OF KRAS FOR THE TREATMENT OF CANCER” (Hoffmann-La Roche Inc., priority 2022, published 2025):

How the values were obtained:
[1] = GSH Reaction Rates (inherent GSH reactivity); assay type: in vitro ADME; conditions: for T½(hour) in GSH: pH 7.4, up to 6 h
Source text: Glutathione (GSH) is a tripeptide found in most of the tissues, especially in high concentrations in the liver, and plays critical roles in protecting cells from oxidative damage and the toxicity of xenobiotic electrophiles, and maintaining redox homeostasis. More specifically, glutathione conjugation helps contribute to detoxification by binding electrophiles that could otherwise bind to proteins or nucleic acids, resulting in cellular damage and genetic mutations.
Many potentially toxic electrophilic xenobiotics and some endogenous compounds are detoxified by conversion to the corresponding glutathione S-conjugate, which consumes inherent GSH and then diminishes detoxification effects. Some drugs and halogenated workplace/environmental contaminants are bioactivated by this mechanism.
Therefore Strategy to minimize the GSH metabolism is very critical. Short T1/2 in inherent GSH reaction indicated high GSH reaction rate. Thus T1/2 in inherent GSH reaction assay was determined for the screening of candidates.
Reference compounds and compounds of this invention potentially could form conjugation with GSH either through halogenated moieties substitution reaction or direct Michael addition reaction. This test was therefore performed to check GSH reactivity of listed compounds.
For inherent GSH reactivity determination, compounds at 1 μM were incubated at 37° C. with and without 5 mM GSH for 0, 0.5, 1, 2, 4 and 6 h in 100 mM potassium phosphate buffer at pH 7.4. At the end of the designated time points, samples were quenched with acetonitrile containing 10 mM N-ethylmaleimide and an internal standard. Quenched samples were centrifuged, and supernatants were analyzed by LC-MS/MS for compound quantification.

KRAS G12C-BRAF complex = biological target: T1, KRAS G12C-BRAF complex (Homo sapiens, UniProt P01116+P62937, G12C); assay: KRAS G12C-BRAF NanoBit assay in HEK293 cells; assay type: cell-based; conditions: HEK293 stable cell pool, 3 hours of incubation
T1 construct: expressed in transfected cells
T1 sequence (P01116 1-188 isoform P01116-2 G12C): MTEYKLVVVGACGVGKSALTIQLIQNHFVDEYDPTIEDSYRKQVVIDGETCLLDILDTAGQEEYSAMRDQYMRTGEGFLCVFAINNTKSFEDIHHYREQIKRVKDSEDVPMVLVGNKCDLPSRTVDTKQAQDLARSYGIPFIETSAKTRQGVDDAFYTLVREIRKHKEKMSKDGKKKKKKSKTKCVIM
T1 sequence (P62937 whole entry): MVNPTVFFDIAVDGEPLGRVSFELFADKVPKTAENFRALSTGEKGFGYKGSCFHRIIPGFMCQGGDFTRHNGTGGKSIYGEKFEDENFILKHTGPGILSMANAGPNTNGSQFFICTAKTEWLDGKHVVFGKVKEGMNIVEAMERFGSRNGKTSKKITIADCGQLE
Outline: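 HEK293 stable pool co-expressing SmBiT-KRAS G12C and BRAF RBD-LgBiT, exposed 3 h to compounds (16-point 3-fold dilution, top final 30 μM). Luminescence was read 20 min after Nano-Glo Live Cell substrate addition. A decrease versus DMSO control indicates disruption of the complex.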

[2] = biological target: KRAS G12V binding to BRAF (Homo sapiens, UniProt P01116+P62937, G12V); assay: KRAS-BRAF with CYPA (500 nM) interaction assay (TR-FRET), G12V; assay type: biochemical; conditions: 3 hours
KRAS G12V binding to BRAF, sequence (P01116 1-188 isoform P01116-2 G12V): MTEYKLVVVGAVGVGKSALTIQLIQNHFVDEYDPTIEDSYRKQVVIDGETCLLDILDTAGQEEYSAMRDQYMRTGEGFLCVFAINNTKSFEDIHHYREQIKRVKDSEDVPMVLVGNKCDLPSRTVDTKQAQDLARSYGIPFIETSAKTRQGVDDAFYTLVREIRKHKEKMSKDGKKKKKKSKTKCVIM
KRAS G12V binding to BRAF, sequence (P62937 whole entry): as the sequence (P62937 whole entry) above
Outline: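 TR-FRET (Ex320 nm, Em 665/615 nm) measured compound- or compound-CYPA-dependent disruption of KRAS-BRAF complex, with CYPA at 500 nM. Disruption scored as decrease in TR-FRET ratio versus DMSO control wells.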

[3] = tested on: phosphorylation of ERK, KRAS G12V in SW620; assay: pERK inhibition assay, G12V; assay type: cell-based, human; conditions: Homo sapiens, SW-620; SW620, 4 hours of incubation
Outline: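 NCI-H358 (G12C), AGS (G12D) and SW620 (G12V) cells were seeded overnight at 30,000, 20,000 and 30,000 cells/well, respectively. They were then treated 4 h with compound (0.5% DMSO final), fixed, and methanol-permeabilized. pERK was detected by in-cell ELISA (anti-pERK/HRP, TMB, OD450); IC50 from a 4-parameter sigmoidal fit.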

[4] = 1 μM compound, 5 mM GSH, 37° C., pH 7.4, 6 hr
[5] = 1 μM compound, 5 mM GSH, 37° C.

SMILES: CO[C@@H](C)c1ncc(N2CCN(C)CC2)cc1-c1c2c3cc(c(F)cc3n1CC(F)(F)F)-c1csc(n1)C[C@H](NC(=O)[C@H](C(C)C)N(C)C(=O)[C@H]1C[C@@H](C#CC(F)(F)F)C1)C(=O)N1CCC[C@H](N1)C(=O)OCC(C)(C)C2 (atropisomer, axis not shown; (M)) [Example 3, cis-N-[(1S)-1-[[(7S,13S)-24-fluoro-(20M)-20-[2-[(1S)-1-methoxyethyl]-5-(4-methylpiperazin-1-yl)-3-pyridyl]-17,17-dimethyl-8,14-dioxo-21-(2,2,2-trifluoroethyl)-15-oxa-4-thia-9,21,27,28-tetrazapentacyclo[17.5.2.1^2,5.1^9,13.0^22,26]octacosa-1(25),2,5(28),19,22(26),23-hexaen-7-yl]carbamoyl]-2-methyl-propyl]-N-methyl-3-(3,3,3-trifluoroprop-1-ynyl)cyclobutanecarboxamide]
- Remaining at 6 hr in GSH (%) [1, 4]: 100%
- T½(hour) in GSH [1, 5]: stable (If % depletion after 6 hour incubation is less than 20%, compounds were reported as stable)
- IC50 (KRAS G12C-BRAF complex): 0.036 µM
- IC50 [2]: > 10 µM
- IC50 [3]: 0.009 µM

SMILES: CCn1c(-c2cc(N3CCN(CC(F)(F)F)CC3)cnc2[C@H](C)OC)c2c3cc(c(F)cc31)-c1csc(n1)C[C@H](NC(=O)[C@H](C(C)C)N(C)C(=O)[C@H]1C[C@@H](C#CC(F)(F)F)C1)C(=O)N1CCC[C@H](N1)C(=O)OCC(C)(C)C2 (atropisomer, axis not shown; (M)) [Example 8, cis-N-[(1S)-1-[[(7S,13S)-21-ethyl-24-fluoro-(20M)-20-[2-[(1S)-1-methoxyethyl]-5-[4-(2,2,2-trifluoroethyl)piperazin-1-yl]-3-pyridyl]-17,17-dimethyl-8,14-dioxo-15-oxa-4-thia-9,21,27,28-tetrazapentacyclo[17.5.2.1^2,5.1^9,13.0^22,26]octacosa-1(25),2,5(28),19,22(26),23-hexaen-7-yl]carbamoyl]-2-methyl-propyl]-N-methyl-3-(3,3,3-trifluoroprop-1-ynyl)cyclobutanecarboxamide]
- Remaining at 6 hr in GSH (%) [1, 4]: 90%
- T½(hour) in GSH [1, 5]: stable (If % depletion after 6 hour incubation is less than 20%, compounds were reported as stable)
- IC50 (KRAS G12C-BRAF complex): 0.054 µM
- IC50 [2]: > 10 µM
- IC50 [3]: 0.125 µM

SMILES: CCn1c(-c2cc(N3CCOCC3)cnc2[C@H](C)OC)c2c3cc(c(F)cc31)-c1csc(n1)C[C@H](NC(=O)[C@H](C(C)C)N(C)C(=O)[C@H]1C[C@@H](C#CC(F)(F)F)C1)C(=O)N1CCC[C@H](N1)C(=O)OCC(C)(C)C2 (atropisomer, axis not shown; (M)) [Example 11, cis-N-[(1S)-1-[[(7S,13S)-21-ethyl-24-fluoro-(20M)-20-[2-[(1S)-1-methoxyethyl]-5-morpholino-3-pyridyl]-17,17-dimethyl-8,14-dioxo-15-oxa-4-thia-9,21,27,28-tetrazapentacyclo[17.5.2.1^2,5.1^9,13.0^22,26]octacosa-1(25),2,5(28),19,22(26),23-hexaen-7-yl]carbamoyl]-2-methyl-propyl]-N-methyl-3-(3,3,3-trifluoroprop-1-ynyl)cyclobutanecarboxamide]
- Remaining at 6 hr in GSH (%) ([1]; 6 h, 1 μM, pH 7.4): 94%
- IC50 (KRAS G12C-BRAF complex): 0.012 µM
- IC50 [2]: > 10 µM
- IC50 [3]: 0.187 µM

SMILES: CC#CC(=O)N1CC[C@H](C(=O)N(C)[C@H](C(=O)N[C@H]2Cc3nc(cs3)-c3ccc4c(c3)c(c(-c3cccnc3[C@H](C)OC)n4CC)CC(C)(C)COC(=O)[C@@H]3CCCN(N3)C2=O)C(C)C)C1 [Example A168, reference compound]
- Remaining at 6 hr in GSH (%) ([1]; 6 h, 1 μM, pH 7.4): 77%
- half-life at 1 μM ([1]; pH 7.4): 28.9 h
- IC50 (KRAS G12C-BRAF complex): 0.205 µM
- IC50 [2]: 3.62 µM
- IC50 [3]: 0.176 µM
